Patent US20220054513A1, “COMBINATION COMPOSITIONS COMPRISING A BETA-LACTAMASE INHIBITOR” (VenatoRx Pharmaceuticals, Inc., priority 2018, published 2022)

Tested on: Acinetobacter baumannii-calcoaceticus species complex clinical isolates
Experiment: MIC of triple combinations (Compound 1, sulbactam, meropenem or cefepime), 141 clinical isolates
Type: cell-based
Conditions: Cmpd 1 at 4 μg/mL in combinations
From the text: For a more comprehensive assessment of the ability of test compounds to potentiate sulbactam in triple combinations with β-lactams additional MIC assays were utilized.

C[C@@H](O)[C@H]1C(=O)N2C(C(=O)O)=C(S[C@@H]3CN[C@H](C(=O)N(C)C)C3)[C@H](C)[C@H]12 [MEM]
MIC (strain 993131): 64 µg/mL
MIC (strain 994180): 2 µg/mL
MIC (strain 995771): 256 µg/mL
MIC (strain 996612): 32 µg/mL
MIC (strain 996869): >256 µg/mL
MIC (strain 997574): 256 µg/mL
MIC (strain 998107): 64 µg/mL
MIC (strain 998532): 256 µg/mL
MIC (strain 998898): 32 µg/mL
MIC (strain 998907): 16 µg/mL
MIC (strain 999306): 2 µg/mL
MIC (strain 1001007): 256 µg/mL
MIC (strain 1001611): 32 µg/mL
MIC (strain 1002208): 64 µg/mL
MIC (strain 1002952): >256 µg/mL
MIC (strain 1002960): >256 µg/mL
MIC (strain 1003557): 256 µg/mL
MIC (strain 1003787): >256 µg/mL
MIC (strain 1008508): >256 µg/mL
MIC (strain 1008510): 256 µg/mL
MIC (strain 1010245): 64 µg/mL
MIC (strain 1010331): 64 µg/mL
MIC (strain 1011959): 64 µg/mL
MIC (strain 1013022): 256 µg/mL
MIC (strain 1013035): 256 µg/mL
MIC (strain 1013055): 32 µg/mL
MIC (strain 1013322): 64 µg/mL
MIC (strain 1014143): 8 µg/mL
MIC (strain 1014646): 64 µg/mL
MIC (strain 1014815): 256 µg/mL
MIC (strain 1014866): 64 µg/mL
MIC (strain 1014870): 256 µg/mL
MIC (strain 1014878): 64 µg/mL
MIC (strain 1018109): 0.25 µg/mL
MIC (strain 1018801): 256 µg/mL
MIC (strain 1018802): 256 µg/mL
MIC (strain 1018807): 64 µg/mL
MIC (strain 1018851): 256 µg/mL
MIC (strain 1019086): 256 µg/mL
MIC (strain 1023031): >256 µg/mL
MIC (strain 1023034): 64 µg/mL
MIC (strain 1023074): 32 µg/mL
MIC (strain 1023207): 32 µg/mL
MIC (strain 1023329): 64 µg/mL
MIC (strain 1024119): 4 µg/mL
MIC (strain 1026990): 256 µg/mL
MIC (strain 1026992): 32 µg/mL
MIC (strain 1027234): 64 µg/mL
MIC (strain 1027590): 256 µg/mL
MIC (strain 1027603): 64 µg/mL
MIC (strain 1027748): 32 µg/mL
MIC (strain 1028193): >256 µg/mL
MIC (strain 1029770): >256 µg/mL
MIC (strain 1029913): 32 µg/mL
MIC (strain 1030427): 256 µg/mL
MIC (strain 1031167): 256 µg/mL
MIC (strain 1031191): 64 µg/mL
MIC (strain 1031211): 64 µg/mL
MIC (strain 1031238): 256 µg/mL
MIC (strain 1032669): 64 µg/mL
MIC (strain 1032761): 256 µg/mL
MIC (strain 1033340): 256 µg/mL
MIC (strain 1033979): 256 µg/mL
MIC (strain 1034048): 256 µg/mL
MIC (strain 1034912): 64 µg/mL
MIC (strain 1034913): 64 µg/mL
MIC (strain 1034916): 64 µg/mL
MIC (strain 1034925): 64 µg/mL
MIC (strain 1034962): 64 µg/mL
MIC (strain 1035144): 256 µg/mL
MIC (strain 1035788): 64 µg/mL
MIC (strain 1035794): 32 µg/mL
MIC (strain 1035808): 16 µg/mL
MIC (strain 1035825): 64 µg/mL
MIC (strain 1036045): 64 µg/mL
MIC (strain 1036068): 64 µg/mL
MIC (strain 1036734): 64 µg/mL
MIC (strain 1036768): 8 µg/mL
MIC (strain 1036781): >256 µg/mL
MIC (strain 1036859): 64 µg/mL
MIC (strain 1036882): 256 µg/mL
MIC (strain 1036921): 1 µg/mL
MIC (strain 1037193): >256 µg/mL
MIC (strain 1037211): 2 µg/mL
MIC (strain 1037251): 64 µg/mL
MIC (strain 1037256): 64 µg/mL
MIC (strain 1037479): 256 µg/mL
MIC (strain 1037593): 256 µg/mL
MIC (strain 1037618): 1 µg/mL
MIC (strain 1037714): 256 µg/mL
MIC (strain 1037731): 0.5 µg/mL
MIC (strain 1037732): 256 µg/mL
MIC (strain 1037738): >256 µg/mL
MIC (strain 1037747): 256 µg/mL
MIC (strain 1038418): 0.25 µg/mL
MIC (strain 1038439): 0.25 µg/mL
MIC (strain 1039502): 64 µg/mL
MIC (strain 1039518): 64 µg/mL
MIC (strain 1040900): 64 µg/mL
MIC (strain 1040901): 64 µg/mL
MIC (strain 1042182): 64 µg/mL
